Assay results published in patent US11724998B2, “PXR agonists and uses thereof for gut barrier dysfunction treatment and prevention” (Albert Einstein College of Medicine, priority 2017, dated 2023).
Entries after “also recorded” stand apart in the source; their conditions may differ.

Assays:
PXR LBD = target: T1, PXR LBD (Homo sapiens, UniProt O75469); assay: One-hybrid PXR LBD reporter gene assay in Caco-2 cells; assay type: cell-based; conditions: 24 h exposure, FIG. 3
T1 construct: validated using a one-hybrid PXR LBD reporter assay; expressed in transfected cells; host or cells: Caco-2
T1 sequence (O75469 146-433 limits assumed): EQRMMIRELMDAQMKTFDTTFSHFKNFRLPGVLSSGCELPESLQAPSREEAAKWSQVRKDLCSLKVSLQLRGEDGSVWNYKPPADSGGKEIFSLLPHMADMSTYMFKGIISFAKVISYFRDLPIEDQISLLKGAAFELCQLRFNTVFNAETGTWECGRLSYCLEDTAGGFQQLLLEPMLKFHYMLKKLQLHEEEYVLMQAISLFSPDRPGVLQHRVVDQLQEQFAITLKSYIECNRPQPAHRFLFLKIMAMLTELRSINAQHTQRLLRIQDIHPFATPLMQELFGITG
Experimental: FIG. 3. One-hybrid PXR reporter gene assay. Performed in Caco-2 cells as a 24 h exposure to FKK5 at two different concentrations.

AhR = target: T2, AhR (Homo sapiens, UniProt P35869); assay: HTS nuclear receptor activation screen using LS180 cells (AhR); assay type: cell-based; conditions: data not shown
T2 sequence (P35869 11-848): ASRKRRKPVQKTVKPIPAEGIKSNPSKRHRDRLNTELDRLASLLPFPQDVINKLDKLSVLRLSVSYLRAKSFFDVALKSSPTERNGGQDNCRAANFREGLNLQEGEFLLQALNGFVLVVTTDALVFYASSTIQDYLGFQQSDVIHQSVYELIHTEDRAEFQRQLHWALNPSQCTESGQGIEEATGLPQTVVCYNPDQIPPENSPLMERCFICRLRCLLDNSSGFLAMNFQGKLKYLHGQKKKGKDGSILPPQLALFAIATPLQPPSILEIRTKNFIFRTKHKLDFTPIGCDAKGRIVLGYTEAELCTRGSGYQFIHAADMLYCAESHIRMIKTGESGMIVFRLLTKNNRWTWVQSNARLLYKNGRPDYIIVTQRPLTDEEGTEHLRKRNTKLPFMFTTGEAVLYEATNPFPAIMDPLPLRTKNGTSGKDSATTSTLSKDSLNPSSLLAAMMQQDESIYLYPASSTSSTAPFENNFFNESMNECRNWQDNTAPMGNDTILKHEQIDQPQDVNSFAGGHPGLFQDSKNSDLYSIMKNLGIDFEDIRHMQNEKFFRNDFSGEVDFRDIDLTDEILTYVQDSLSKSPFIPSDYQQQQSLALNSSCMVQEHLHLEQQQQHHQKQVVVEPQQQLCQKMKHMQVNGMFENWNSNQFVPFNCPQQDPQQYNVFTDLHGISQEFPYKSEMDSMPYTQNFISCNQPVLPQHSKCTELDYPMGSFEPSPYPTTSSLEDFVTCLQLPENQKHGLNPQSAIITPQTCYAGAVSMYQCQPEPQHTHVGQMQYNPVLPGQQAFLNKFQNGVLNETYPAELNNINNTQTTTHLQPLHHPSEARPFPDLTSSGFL

[1] = test system: CAR, constitutive androstane receptor; assay: Nuclear receptor transactivation assay in Caco-2 cells (CAR); assay type: cell-based; conditions: FIG. 4
Experimental: (§1) FIG. 4. Nuclear Receptor transactivation assays in caco-2 (day 0) cells. Methods used are published (33). Assays were performed at least two times in triplicate CAR, constitutive androstane receptor; TCBOPOP, CAR ligand; LXR, Liver X receptor; T0901315, LXR ligand. n.s, not significant.
(§2) IPA/Indoles can have weak (˜2 fold) but important effects on the activation of other nuclear receptors (e.g., CAR, LXR) (33). […] Some receptors, specifically CAR and LXR, can act to induce liver steatosis (79, 83-86) and hepatocarcinogenesis (CAR) (80, 84, 87-89) and thus, avoiding excessive activation of these nuclear receptors in the context of PXR activation would be important. […] CDK5 (along with CDK2) are important kinases that phosphorylate and inhibit PXR activation (90). Accordingly, based on the data, it is unlikely that FKK5 activates PXR via inhibition of CDK5.

LXR, Liver X receptor = assay: Nuclear receptor transactivation assay in Caco-2 cells (LXR); assay type: cell-based; conditions: FIG. 4
Experimental: as §1, §2

CDK5/p25 enzyme = CDK5/p25 enzyme (Homo sapiens, UniProt Q00535); assay: ADP-Glo kinase assay with CDK5/p25 enzyme; assay type: biochemical; conditions: up to 20 μM
CDK5/p25 enzyme, sequence (Q00535 whole entry, species assumed): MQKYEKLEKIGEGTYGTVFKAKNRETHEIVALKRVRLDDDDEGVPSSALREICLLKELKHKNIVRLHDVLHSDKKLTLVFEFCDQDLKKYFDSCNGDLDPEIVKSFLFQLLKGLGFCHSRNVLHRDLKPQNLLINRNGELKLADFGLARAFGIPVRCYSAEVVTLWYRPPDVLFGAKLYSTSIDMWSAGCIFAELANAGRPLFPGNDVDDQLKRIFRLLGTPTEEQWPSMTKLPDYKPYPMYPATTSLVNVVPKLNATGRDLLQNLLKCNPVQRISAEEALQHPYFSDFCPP
CDK5/p25 enzyme, sequence (Q15078 99-307 partner limits assumed, species assumed): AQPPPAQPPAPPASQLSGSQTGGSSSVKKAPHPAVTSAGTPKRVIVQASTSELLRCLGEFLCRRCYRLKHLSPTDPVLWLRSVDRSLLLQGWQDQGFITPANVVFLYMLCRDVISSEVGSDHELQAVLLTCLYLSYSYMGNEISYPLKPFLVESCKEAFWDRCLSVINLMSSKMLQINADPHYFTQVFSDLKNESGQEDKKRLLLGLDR
Experimental: FIG. 5. ADP-Glo kinase with CDK5/p25 enzyme. Michaelis-Menton fit of RLU values across FKK5 concentrations after enzyme and time of incubation was optimized. The fit is nearly similar with one curve describing all concentration effects. Km˜0.01483; Ki˜4.656e+099; Vmax˜53380.
as §2

plated hepatocytes = assay: LDH release assay in plated hepatocytes; assay type: cell-based; conditions: 24 h and 48 h exposure; FIG. 1
Experimental: FIG. 1A-1B. FKK compound cytotoxicity assay. (A) MTT cell cytotoxicity assay in LS180 cells lines (NCBI Bookshelf: world wide web ncbi.nlm.nih.gov/books/NBK144065/). […] (B) LDH release assay performed in plated hepatocytes after a 24 h and 48 h exposure. For both panels, assays were performed at least two times in triplicate.
A very unique feature of simple indole structures (FKK1-10) is that they are predicted to have very short systemic residence times limiting systemic drug exposure and any potential for off-target effects in organs other than the intestines (78).

PXR = target: T3, PXR (Homo sapiens, UniProt O75469); assay: Isothermic titration calorimetry (ITC); assay type: binding; conditions: FIG. 11
T3 sequence (O75469 1-434): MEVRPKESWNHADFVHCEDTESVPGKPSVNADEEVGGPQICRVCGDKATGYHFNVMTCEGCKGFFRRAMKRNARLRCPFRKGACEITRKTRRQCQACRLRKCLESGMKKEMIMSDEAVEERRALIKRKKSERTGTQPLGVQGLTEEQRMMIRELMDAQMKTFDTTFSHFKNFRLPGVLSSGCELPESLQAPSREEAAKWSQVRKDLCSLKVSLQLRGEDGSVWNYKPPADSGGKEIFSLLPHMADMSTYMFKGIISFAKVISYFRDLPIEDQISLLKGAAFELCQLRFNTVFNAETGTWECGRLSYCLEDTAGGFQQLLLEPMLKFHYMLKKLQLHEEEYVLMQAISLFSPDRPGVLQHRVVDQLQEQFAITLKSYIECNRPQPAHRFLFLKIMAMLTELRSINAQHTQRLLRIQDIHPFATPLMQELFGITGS

IL-8 = assay: TNF-induced IL-8 in human intestinal organoids; assay type: cell-based; conditions: initial experiment n=2, FIG. 12
Text: Intestinal organoids were developed using human small intestines and stem cell isolation and propagation in vitro.

O=C(c1ccncc1)c1cc2ccccc2n1S(=O)(=O)c1ccccc1 [FKK5]
activation of PXR (PXR LBD): ~5 fold
AhR activation (AhR): not AhR
CAR activation [1]: does not activate
CAR function with increasing concentrations [1]: CAR function is inhibited
LXR activation (LXR, Liver X receptor): does not activate
inhibition of CDK5/p25 enzyme (CDK5/p25 enzyme): does not inhibit
cytotoxicity in hepatocytes (plated hepatocytes): no cytotoxicity observed
binding to human PXR (PXR): efficient and direct binding
TNF-induced IL-8 expression (IL-8): significant attenuation; also recorded: reduces pro-inflammatory cytokine IL-8 expression
